Experiments:
[1] = test system: sensitized cavies attacked by antigen (egg albumin); assay: Inflammatory cells in bronchial lung lavage solution of sensitized cavies after antigen attack (Table 3); assay type: in vivo, cavy; conditions: 0.5 mg/kg Ip, 10 days
Description: 2% egg albumin gel solution is used to cause allergy and is subcutaneously injected (0.05 mL each part) in ten parts of two retral soles, groin, waist, back, neck and armpits of each cavy. 0.5 mL 2% egg albumin gel solution is intraperitoneally injected at the same time. The medicine samples are injected since the tenth day after allergy has been caused. The testing samples of A2, B2, C2 or physiological saline solution (NS, 0.5 mL/kg) or dexamethasone (DXM, […]) are intraperitoneal injected respectively; A1, B1 (5 g/kg), C1 (2.5 g/kg) are administered by intragaster. The above testing samples are administered 10 days. A1: fermentation mycelium powder; […]: culture supernatant concentrated fluid; C1: sporophore powder; A2: water extract of fermentation mycelium; B2: fermentation concentrated fluid; C2: water extract of sporophore powder; dexamethasone sodium phosphate. Asthma as a chronic airway inflammatory disease is characterized by significant increase of eosinophils of bronchus and lung. Eosinophils can release tens of inflammatory substances, such as cytokines, leukotriene and prostapar etc., which may cause inflammation, edema, injury and thickening of airway, make narrow airway and therefore lead to dyspnea. Thus, eosinophil is considered as a target of screening drugs for relieving cough at present. The medicine, which can inhibit inflammation of airway eosinophils, would probably be used for preventing and treating asthma.

[2] = test system: sensitized cavies attacked by antigen (egg albumin); assay: Elementarily separated substances: inflammatory cells in bronchial lung lavage solution of sensitized cavies after antigen attack (Table 5); assay type: in vivo, cavy; conditions: 0.5 mg/kg intraperitoneal, 10 days
Description: 2% egg albumin gel solution is used to cause allergy. The medicine samples are administered since the tenth day after allergy has been caused. The cavies are administered by introgaster method with this tested medicine sample or with physiological saline solution (10 ml/kg); or administered by intraperitoneal method with dexamethasone (0.5 mg/kg). All of the testing medicine samples are administered 10 days. A: total polysaccharide extracted from fermentation product; B: total alkaloids extracted from fermentation product; C: volatile oil extracted from fermentation product; D: organic acid extracted from fermentation product; E: water extract of fermentation product; positive control: dexamethasone.

[3] = test system: sensitized cavies attacked by antigen (egg albumin); assay: Example 4 polysaccharide: inflammatory cells in bronchial lung lavage solution of sensitized cavies after antigen attack (Table 7); assay type: in vivo, cavy; conditions: 0.5 mg/kg
Description: Take 20 g fermentation mycelial powder, add in 400 mL distilled water, boil and extract for 30 min. After filtration, add another 200 mL distilled water to the residue, then repeat the same steps. Mix the filtrate of the two times and add in 100 mL culture supernatant fluid. Then put the mixture into dialysis bag of retention molecular weight 10,000 Dalton and dialyze 10 mM pH6.0 buffer solution of HAc-NaAc 2000 mL for three days to remove small molecular substances in the solution. Change the penetrated liquid 1 time each day.
Then concentrate the residue to 100 mL. On animal test, the polysaccharide affects inflammatory cells in bronchial lung lavage solution of sensitized cavies after being attacked by antigen. (The results are described in Table 7.) 2% egg albumin gel solution is used to cause allergy and is subcutaneous injected (0.05 mL each part) in ten parts of two retral soles, groin, waist, back, neck and armpits of each cavy. 0.5 mL 2% egg albumin gel solution is intraperitoneal injected at the same time. The samples are injected since the tenth day after allergy has been caused.

[4] = test system: sensitized cavies attacked by antigen (1% egg albumin); assay: Pulmonary mechanical function (lung resistance RL) of sensitized cavies after antigen attack; assay type: in vivo, cavy; conditions: 7 mg/kg×1 d; P<0.05˜0.01 in all time phases during 10 min after antigen attack
Description: Suppose airway resistance (RL) is 1005 before being attacked by antigen. Compared with the model group: *P<0.05, **P <0.001, ***P<0.001.
Each cavy is sensitized by being injected 10 mg egg albumin into the muscles of its crus. 3-4 weeks later, antigen attack (1% egg albumin) is given and the caused changes of lung resistance (RL) are observed to evaluate the activity of the samples.

[5] = test system: cavy cough caused by citric acid; assay: Cough reverberation of cavy caused by citric acid; assay type: in vivo; conditions: 10 mg · kg^−1, once daily 3 days
Description: Put cavies into a volume marked box to stabilize for 1 min, and then atomize 15% citric acid for 2 min by ultrasonic nebulizer. From then on, select the cavies that cough more than 10 times in minutes. Divide the selected cavies into 5 groups in terms of their cough times, and then treat them respectively with testing medicine sample CVFS 0.3 g/kg, 0.9 g/kg, 2.7 g/kg, positive control codeine phosphate (10 mg/kg), and the negative control group is administered by intragater method with 10 ml·kg^−1 physiological saline solution (i.g), one time every day, altogether 3 days. 1 hour after the last administration of medicine, induce cough by above method and count the cough times in 10 min from the beginning of atomization.

With `C[C@@H]1C[C@H]2[C@@H]3CCC4=CC(=O)C=C[C@]4(C)[C@@]3(F)[C@@H](O)C[C@]2(C)[C@@]1(O)C(=O)CO` [DXM, dexamethasone] the Eosinophils [1] was 2.60 ± 3.9 %, the Leukocyte total number [1] was 241.6 ± 179.2 Number/mm^3 and the Lymphocyte [1] was 68.4 ± 18.4 %. The Neutrophil [1] was 28.9 ± 16.6%, the Eosinophils [2] was 0.00 ± 0.00 % and the “Leukocyte total number” value [2] was 330.5 ± 254.3 Number/mm3. The Lymphocyte [2] was 87.70 ± 18.73 %, the Neutrophil [2] was 12.30 ± 18.74% and the Eosinophil [3] was 0.00 ± 0.00 %. It also gave a Leukocyte counts [3] of 330.5 ± 254.3 Number/mm3, a Lymphocyte [3] of 87.70 ± 18.73 % and a Neutrophil [3] of 12.30 ± 18.74%.

In the case of `CC(C)(C)NCC(O)c1ccc(O)c(CO)c1` (stereo not drawn) [salbutamol], the “inhibition of increase of lung resistance (RL) caused by antigen attack” value [4] was “evident inhibition”.

`COc1ccc2c3c1O[C@H]1[C@@H](O)C=C[C@H]4[C@@H](C2)N(C)CC[C@@]341` [Codeine phosphate, codeine phosphate] was tested, and the “Cough times (in 10 min)” value [5] was 9.4 ± 8.0 and the “Inhibition of cough times %” value [5] was 67.4%.

Reference: patent US20040241184A1, “Fermentation product of cyptoporous volvatus and its preparation method and use” (priority 2001, published 2004)
